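Grown in 96-well plates, cells were treated for 48 hours with each compound at five concentrations. Insufficient inhibition: endpoint recorded as highest concentration tested. GI50 marks 50% less growth. TGI denotes the concentration required for complete inhibition of growth.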
What was measured:
Experiment in all cases: NCI-60 cell line screen, 48 h
HT29 colon = test system: HT29 colon
OVCAR-3 ovarian = test system: OVCAR-3 ovarian
NCI-H522 lung = test system: NCI-H522 lung
A549 NSCLC = test system: A549 NSCLC
MDA-N = test system: MDA-N
DU-145 prostate = test system: DU-145 prostate
MDA-MB-435 = test system: MDA-MB-435
HOP-62 NSCLC = test system: HOP-62 NSCLC
MOLT-4 leukemia = test system: MOLT-4 leukemia
NCI-H460 lung = test system: NCI-H460 lung
SW-620 colon = test system: SW-620 colon
SF-295 CNS = test system: SF-295 CNS
OVCAR-8 ovarian = test system: OVCAR-8 ovarian
OVCAR-5 ovarian = test system: OVCAR-5 ovarian
MALME-3M melanoma = test system: MALME-3M melanoma
LOX IMVI melanoma = test system: LOX IMVI melanoma
SR leukemia = test system: SR leukemia

Row | Structure (SMILES) | TGI (HT29 colon) [µM] | TGI (OVCAR-3 ovarian) [µM] | TGI (NCI-H522 lung) [µM] | TGI (A549 NSCLC) [µM] | TGI (MDA-N) [µM] | TGI (DU-145 prostate) [µM] | TGI (MDA-MB-435) [µM] | TGI (HOP-62 NSCLC) [µM] | TGI (MOLT-4 leukemia) [µM] | TGI (NCI-H460 lung) [µM] | TGI (SW-620 colon) [µM] | TGI (SF-295 CNS) [µM] | TGI (OVCAR-8 ovarian) [µM] | TGI (OVCAR-5 ovarian) [µM] | TGI (MALME-3M melanoma) [µM] | TGI (LOX IMVI melanoma) [µM] | TGI (SR leukemia) [µM] | GI50 (A549 NSCLC) [µM] | GI50 (LOX IMVI melanoma) [µM] | GI50 (NCI-H460 lung) [µM]
1 | Cc1ccc(-n2[nH]nc(C(N)=O)c2=O)cc1 | > 100 | > 100 | > 100 | > 100 | > 100 | > 100 | > 100 | > 100 | > 100 | > 100 | > 100 | > 100 | > 100 | > 100 | > 100 | – | – | – | – | –
2 | C=CCCON(C(=O)OC(C)(C)C)c1ccccc1 | > 100 | > 100 | > 100 | > 100 | > 100 | > 100 | > 100 | > 100 | > 100 | > 100 | > 100 | > 100 | > 100 | > 100 | > 100 | > 100 | – | – | – | –
3 | Cc1cc(C)c2c(=O)cc(-c3cccc4ccccc34)[nH]c2n1 | 2.31 | – | – | > 100 | – | > 100 | 0.513 | > 100 | 42.7 | > 100 | > 88.8 | > 100 | 7.38 | > 100 | 3.29 | 26.4 | > 100 | – | – | –
4 | CCCCCCNCCc1cnc[nH]1 | > 100 | > 100 | > 100 | > 100 | – | > 100 | > 100 | > 100 | > 100 | > 100 | > 100 | > 100 | > 100 | > 100 | > 100 | > 100 | > 100 | – | – | –
5 | C[C@@H](C(=O)O)N1C(c2ccco2)=C(/C(C=O)=C\c2ccco2)C(=O)/C1=C\c1ccco1 | > 100 | > 100 | > 100 | > 100 | > 100 | > 100 | > 100 | > 100 | > 100 | – | > 100 | > 100 | > 100 | > 100 | > 100 | > 100 | – | – | – | –
6 | CCOC(=O)Nc1cc2c(c(N)n1)N=C(c1ccc(OC)cc1)CN2 | 0.321 | 0.0156 | 0.00636 | 2.34 | 0.0014 | 33.3 | 0.000324 | 1.49 | – | 0.256 | – | – | > 100 | 21.8 | – | 3.15 | – | 0.0204 | 0.0144 | 0.012
7 | C/C(=N\NS(=O)(=O)c1ccc(C)cc1)c1ccccn1 | > 100 | > 100 | – | > 100 | – | > 100 | > 100 | > 100 | > 100 | > 100 | > 100 | > 100 | > 100 | > 100 | > 100 | > 100 | > 100 | – | – | –
8 | N#C[S-].[La+3].c1cnc2c(c1)ccc1cccnc12.c1cnc2c(c1)ccc1cccnc12.c1cnc2c(c1)ccc1cccnc12 | 18 | 19.2 | 16 | 10.6 | – | – | – | – | 6.55 | – | 27.1 | 7.94 | 11.5 | 12.4 | 7.06 | 13.3 | 8.8 | – | – | –
9 | CC1(C)C2CCC1(C)C(N/C(Sc1ccccc1)=C(/C(Cl)=C(Cl)Cl)[N+](=O)[O-])C2 (configuration not stated) | 30.7 | 17.7 | – | 45.9 | 27.6 | 61.1 | 25.9 | 62.9 | > 100 | 32.7 | 24 | 27.7 | 27.3 | 65.5 | 28.4 | – | – | – | – | –
10 | O=C1COc2cc(NC(=S)Nc3ccccc3)ccc2N1 | > 100 | > 100 | > 100 | > 100 | – | – | – | > 100 | > 100 | > 100 | > 100 | > 100 | > 100 | > 100 | > 100 | > 100 | > 100 | – | – | –
11 | COc1cc2c(cc1O)c(O)cc1c3cc(OC)c(OC)cc3c[n+](C)c21 | > 61.4 | > 100 | 25.2 | > 100 | 35.7 | > 43.7 | 30.9 | > 100 | 40.3 | > 100 | > 100 | > 100 | > 79 | > 100 | > 100 | > 55.2 | – | – | – | –
12 | Clc1ccc(CCN(CCc2ccc(Cl)c(Cl)c2)CCN2CCCC2)cc1Cl | 3.41 | 3.2 | 3.2 | 3.15 | 3.32 | 4.3 | 2.75 | 3.03 | – | 3.34 | – | 3.3 | 3.06 | 3.23 | 3.5 | 2.95 | – | – | – | –
13 | O=C1/C(=C/C=C/c2ccccc2)CCC1CNc1ccccc1 (configuration not stated) | 63.9 | > 68.9 | > 22.7 | > 100 | – | > 100 | > 86 | > 100 | > 100 | > 100 | > 90.4 | > 100 | > 100 | > 100 | > 100 | 40 | > 100 | – | – | –
14 | CCC(CC)NC1=C(NC(C)=O)C(=O)c2ccccc2C1=O | > 50 | > 50 | > 50 | > 50 | – | – | – | > 50 | > 50 | > 50 | > 50 | > 50 | > 50 | – | > 50 | > 50 | > 50 | – | – | –
15 | CC1(C)OCN(c2ccc(N3CCOCC3)cc2)Cn2c1nc1ccccc12 | > 100 | > 100 | > 100 | > 100 | – | – | – | > 100 | > 100 | > 100 | > 100 | > 100 | > 100 | – | > 100 | > 100 | 92.7 | – | – | –
16 | CC(C)(C)C1=C(Br)C(C(C)(C)C)OP1(=O)O (configuration not stated) | > 100 | > 100 | > 100 | > 100 | > 100 | > 100 | > 100 | > 100 | – | > 100 | – | > 100 | > 100 | > 100 | > 100 | > 100 | – | – | – | –
